Results on 28 molecules are retold here after patent US11840533B2, “Pyridinone-based epigenetic modifiers and uses thereof” (THE BOARD OF TRUSTEES OF THE UNIVERSITY OF ILLINOIS, priority 2017, dated 2023).

Bounds are passed on as bounds.

The test system of this experiment is fulvestrant-resistant MCF7:5C-FR cells. In words: Fulvestrant-resistant breast cancer cell viability (cell proliferation) assay. The class given is cell-based. The conditions noted are these: growth inhibition in fulvestrant-resistant MCF-7:CFR cells, 120 hrs. As for the experimental part:
For the cell proliferation assay, the fulvestrant-resistant MCF7:5C-FR cells were seeded at about 2000 to about 2500/well in 96-well plates. The next day, compounds were add to the cells at desired serial concentrations form 3 nM to 10 uM. A final 0.1% (v/v) DMSO was used as vehicle control and 1 uM JQ1 was used as positive. The cell were grown in the normal culture condition for 120 hrs. Then the Hoechst 33342 dye were add to each well at a final concentration of 5 μg/ml, and put back to the incubator at 37 C for 90 min. The plates were scanned immediately after the incubation with Celigo (Nexcelcom Biocesnse) for the fluorescence of the nuclear using DAPI channel, and the cell number was counted thought the analysis function of the Celigo software. The normalized cell number to the vehicle control was used to represent the cell proliferation. […] N.D.=Not determined.

As a reminder, the IC50 is the concentration needed to halve the response being measured. For `Cn1cc(-c2cc(NS(=O)(=O)C3CC3)c3cnn(Cc4ccccc4)c3c2)c2ccnc(O)c21` [Compound 46, N-(1-benzyl-6-(7-hydroxy-1-methyl-1H-pyrrolo[2,3-c]pyridin-3-yl)-1H-indazol-4-yl)cyclopropanesulfonamide], the IC50 (120 h) was less than 1000 nM.

Under “120 h”, `CCS(=O)(=O)Nc1cccc2c1nc(-c1cn(C)c3c(O)nccc13)n2Cc1ccccc1` [Compound 60, N-(1-benzyl-2-(7-hydroxy-1-methyl-1H-pyrrolo[2,3-c]pyridin-3-yl)-1H-benzo[d]imidazol-4-yl)ethanesulfonamide] displayed an IC50 of more than 100 nM.

As to `CCS(=O)(=O)Nc1cc(-c2cn(C)c3c(O)nccc23)cc2c1cnn2Cc1ccc(F)cc1Cl` [Compound 35, N-(1-(2-chloro-4-fluorobenzyl)-6-(7-hydroxy-1-methyl-1H-pyrrolo[2,3-c]pyridin-3-yl)-1H-indazol-4-yl)ethanesulfonamide], under “120 h”, the IC50 was less than 500 nM.

The molecule `CCS(=O)(=O)Nc1cc(-c2cn(CCCl)c3c(O)nccc23)cc2c1ccn2Cc1c(C)cccc1C` [Compound 84, N-(6-(1-(2-chloroethyl)-7-hydroxy-1H-pyrrolo[2,3-c]pyridin-3-yl)-1-(2,6-dimethylbenzyl)-1H-indol-4-yl)ethanesulfonamide] registered an IC50 of less than 1000 nM.

In turn, `CC(C)C(=O)Nc1cccc2c1cc(-c1cn(C)c3c(O)nccc13)n2[C@@H](c1ccccc1)C1CCOCC1` [Compound 124, (R)-N-(2-(7-hydroxy-1-methyl-1H-pyrrolo[2,3-c]pyridin-3-yl)-1-(phenyl(tetrahydro-2H-pyran-4-yl)methyl)-1H-indol-4-yl)isobutyramide] had a 50% inhibitory concentration (IC50) (120 h) of less than 1000 nM.

In turn, `CNS(=O)(=O)CCc1ccc(O)cc1C(=O)c1cn(C)c2c(O)nccc12` [Compound 12, 2-(4-hydroxy-2-(7-hydroxy-1-methyl-1H-pyrrolo[2,3-c]pyridine-3-carbonyl)phenyl)-N-methylethane-1-sulfonamide] displayed an IC50 (120 h) of more than 1000 nM.

Turning to `Cn1cc(-c2nc3c(NS(C)(=O)=O)cccc3n2[C@@H](c2ccccc2)C2CCOCC2)c2ccnc(O)c21` [Compound 68, (R)-N-(2-(7-hydroxy-1-methyl-1H-pyrrolo[2,3-c]pyridin-3-yl)-1-(phenyl(tetrahydro-2H-pyran-4-yl)methyl)-1H-benzo[d]imidaol-4-yl)methanesulfonamide], the IC50 (120 h) is less than 1000 nM.

For `CCS(=O)(=O)Nc1cc(-c2cn(C)c3c(O)nccc23)cc2c1ccn2Cc1cccc(Cl)c1Cl` [Compound 47, N-(1-(2,3-dichlorobenzyl)-6-(7-hydroxy-1-methyl-1H-pyrrolo[2,3-c]pyridin-3-yl)-1H-indol-4-yl)ethanesulfonamide], the IC50 (120 h) is less than 1000 nM.

With `Cn1cc(-c2cc(NS(C)(=O)=O)c3ncn(Cc4ccc(F)cc4)c3c2)c2ccnc(O)c21` [Compound 38, N-(1-(4-fluorobenzyl)-6-(7-hydroxy-1-methyl-1H-pyrrolo[2,3-c]pyridin-3-yl)-1H-benzo[d]imidazol-4-yl)methanesulfonamide], the IC50 (120 h) is less than 200 nM.

The molecule `CCS(=O)(=O)Nc1cc(-c2cn(C)c3c(O)nccc23)cc2c1ccn2Cc1c(C)cccc1C` [Compound 28, N-(1-(2,6-dimethylbenzyl)-6-(7-hydroxy-1-methyl-1H-pyrrolo[2,3-c]pyridin-3-yl)-1H-indol-4-yl)ethanesulfonamide] gave an IC50 (120 h) of less than 1000 nM.

Where the note is “120 h”, `Cn1cc(C(Oc2ccc(F)cc2)c2cccc(-c3ccc(F)cc3)c2)c2ccnc(O)c21` (stereo not shown) [Compound 10, 3-((4′-fluoro-[1,1′-biphenyl]-3-yl)(4-fluorophenoxy)methyl)-1-methyl-1H-pyrrolo[2,3-c]pyridin-7-ol] returned an IC50 of 300 nM.

For the molecule `Cc1cccc(C)c1Cn1ccc2c(C(C)(C)O)cc(-c3cn(C)c4c(=O)[nH]ccc34)cc21` [Compound 113, 3-(1-(2,6-dimethylbenzyl)-4-(2-hydroxypropan-2-yl)-1H-indol-6-yl)-1-methyl-1,6-dihydro-7H-pyrrolo[2,3-c]pyridin-7-one], the IC50 (120 h) is less than 1000 nM.

For `CCS(=O)(=O)Nc1cc(-c2cn(C)c3c(O)nccc23)cc2c1ccn2[C@H](c1ccccc1)C1CCOCC1` [Compound 91, (S)-N-(6-(7-hydroxy-1-methyl-1H-pyrrolo[2,3-c]pyridin-3-yl)-1-(phenyl(tetrahydro-2H-pyran-4-yl)methyl)-1H-indol-4-yl)ethanesulfonamide], where the note is “120 h”, the IC50 is less than 1000 nM.

The molecule `CCS(=O)(=O)Nc1cccc2c1nc(-c1cn(C)c3c(O)nccc13)n2Cc1ccc(N(C)C)cc1` [Compound 66, N-(1-(4-(dimethylamino)benzyl)-2-(7-hydroxy-1-methyl-1H-pyrrolo[2,3-c]pyridin-3-yl)-1H-benzo[d]imidaol-4-yl)ethanesulfonamide] displayed an IC50 (120 h) of more than 100 nM.

`CNS(=O)(=O)CCc1ccc(OCc2ccc(F)cc2)cc1C(=O)c1cn(C)c2c(O)nccc12` [Compound 13, 2-(4-((4-fluorobenzyl)oxy)-2-(7-hydroxy-1-methyl-1H-pyrrolo[2,3-c]pyridine-3-carbonyl)phenyl)-N-methylethane-1-sulfonamide] gave an IC50 (120 h) of more than 1000 nM.

With `CCS(=O)(=O)Nc1cc(-c2cn(CCCl)c3c(O)nccc23)cc2c1ccn2Cc1ccc(F)cc1F` [Compound 85, N-(6-(1-(2-chloroethyl)-7-hydroxy-1H-pyrrolo[2,3-c]pyridin-3-yl)-1-(2,4-difluorobenzyl)-1H-indol-4-yl)ethanesulfonamide], for the setting “120 h”, the IC50 is less than 1000 nM.

Turning to `CCS(=O)(=O)Nc1cc(-c2cn(C)c3c(O)nccc23)cc2c1cnn2Cc1cccc(Cl)c1Cl` [Compound 36, N-(1-(2,3-dichlorobenzyl)-6-(7-hydroxy-1-methyl-1H-pyrrolo[2,3-c]pyridin-3-yl)-1H-indazol-4-yl)ethanesulfonamide], under “120 h”, the IC50 is less than 1000 nM.

On to `Cn1cc(C(OCC2CCC2)c2cccc(-c3ccc(F)cc3)c2)c2ccnc(O)c21` (stereo not shown) [Compound 11, 3-((cyclobutylmethoxy)(4′-fluoro-[1,1′-biphenyl]-3-yl)methyl)-1-methyl-1H-pyrrolo[2,3-c]pyridin-7-ol], for which, for the setting “120 h”, the IC50 was more than 5000 nM.

`CCC(c1ccccn1)(c1ccccn1)n1ccc2c(NS(=O)(=O)CC)cc(-c3cn(C)c4c(=O)[nH]ccc34)cc21` [Compound 126, N-(1-(1,1-di(pyridin-2-yl)propyl)-6-(1-methyl-7-oxo-6,7-dihydro-1H-pyrrolo[2,3-c]pyridin-3-yl)-1H-indol-4-yl)ethanesulfonamide] came in with an IC50 (120 h) of less than 10 nM.

With `CCS(=O)(=O)c1cccc2c1nc(-c1cn(C)c3c(O)nccc13)n2[C@H](c1ccccc1)C1CCOCC1` [Compound 115, (S)-3-(4-(ethylsulfonyl)-1-(phenyl(tetrahydro-2H-pyran-4-yl)methyl)-1H-benzo[d]imidazol-2-yl)-1-methyl-1H-pyrrolo[2,3-c]pyridin-7-ol], under “120 h”, the IC50 is less than 1000 nM.

On to `CC(=O)Nc1cccc2c1cc(-c1cn(C)c3c(O)nccc13)n2[C@H](c1ccccc1)C1CCOCC1` [Compound 119, (S)-N-(2-(7-hydroxy-1-methyl-1H-pyrrolo[2,3-c]pyridin-3-yl)-1-(phenyl(tetrahydro-2H-pyran-4-yl)methyl)-1H-indol-4-yl)acetamide], for which, under “120 h”, the IC50 was less than 1000 nM.

In turn, `O=C(c1cccc(-c2ccc(F)cc2)c1)c1cn(CCCCl)c2c(O)nccc12` [Compound 8, (1-(3-chloropropyl)-7-hydroxy-1H-pyrrolo[2,3-c]pyridin-3-yl)(4′-fluoro-[1,1′-biphenyl]-3-yl)methanone] gave an IC50 of more than 5000 nM.

With `Cc1cc(F)cc(C)c1Cn1ccc2c(NS(C)(=O)=O)cc(-c3cn(C)c4c(=O)[nH]ccc34)cc21` [Compound 101, N-(1-(4-fluoro-2,6-dimethylbenzyl)-6-(1-methyl-7-oxo-6,7-dihydro-1H-pyrrolo[2,3-c]pyridin-3-yl)-1H-indol-4-yl)methanesulfonamide], the IC50 (120 h) was less than 1000 nM.

As to `CCC(=O)Nc1cc(-c2cn(C)c3c(=O)[nH]ccc23)cc2c1ccn2C(C)(c1cnccn1)c1cnccn1` [Compound 104, N-(1-(1,1-di(pyrazin-2-yl)ethyl)-6-(1-methyl-7-oxo-6,7-dihydro-1H-pyrrolo[2,3-c]pyridin-3-yl)-1H-indol-4-yl)propionamide], the IC50 (120 h) was less than 1000 nM.

`CCS(=O)(=O)Nc1cc(-c2cn(C)c3c(O)nccc23)cc2c1cnn2Cc1ccc(F)cc1F` [Compound 34, N-(1-(2,4-difluorobenzyl)-6-(7-hydroxy-1-methyl-1H-pyrrolo[2,3-c]pyridin-3-yl)-1H-indazol-4-yl)ethanesulfonamide] had an IC50 (120 h) of less than 500 nM.

`CCS(=O)(=O)Nc1cc(-c2cn(C)c3c(O)nccc23)cc2c1ccn2Cc1cccc(F)c1F` [Compound 48, N-(1-(2,3-difluorobenzyl)-6-(7-hydroxy-1-methyl-1H-pyrrolo[2,3-c]pyridin-3-yl)-1H-indol-4-yl)ethanesulfonamide] yielded an IC50 (120 h) of less than 1000 nM.

For the molecule `CCS(=O)(=O)Nc1cc(-c2cn(C)c3c(O)nccc23)cc2c1ccn2Cc1cc(Cl)c(O)cc1C` [Compound 55, N-(1-(5-chloro-4-hydroxy-2-methylbenzyl)-6-(7-hydroxy-1-methyl-1H-pyrrolo[2,3-c]pyridin-3-yl)-1H-indol-4-yl)ethanesulfonamide], the 50% inhibitory concentration (IC50) (120 h) was more than 100 nM.

For the molecule `Cn1ccnc1C(C)(c1nccn1C)n1ccc2c(C(C)(C)O)cc(-c3cn(C)c4c(=O)[nH]ccc34)cc21` [Compound 110, 3-(1-(1,1-bis(1-methyl-1H-imidazol-2-yl)ethyl)-4-(2-hydroxypropan-2-yl)-1H-indol-6-yl)-1-methyl-1,6-dihydro-7H-pyrrolo[2,3-c]pyridin-7-one], the IC50 (120 h) is less than 1000 nM.
